Experimental data taken from patent publication US11278586B2, “Highly absorbable oral tyrosine formulation” (Kao Corporation, priority 2017, dated 2022).
Where a SMILES comes first, the peptide text is derived from it.

Key:
[1] = Bioabsorbability of tyrosine after oral administration to mice (plasma amino acids by LC-MS/MS); format: in vivo, C57B6J Mice; settings: oral 0.55 mmol/kg body weight; for administered dipeptide detected in the plasma: at any time after administration (15-60 min), results not shown
Experimental: C57B6J Mice (CLEA Japan, Inc., 8 weeks old, male) were acclimatized for 1 week, and then the mice were divided into 4 groups with similar body weights (N=4 for each group). Each of amino acids dissolved in water was orally administered to the mice by sonde at the following dose in Table 1. Venous blood was collected from the fundus using a heparin-treated micro hematocrit tube (VITREX) under isoflurane anesthesia before administration and 15, 30, 45, and 60 minutes after administration. These were centrifuged (8,000×g, 10 minutes, 4° C.) to obtain plasma. Thereafter, a 15% by mass of aqueous sulfosalicylic acid solution which was three times amount of the plasma was added thereto, mixed, and centrifuged (8,000×g, 10 minutes, 4° C.) to remove the protein, and the obtained plasma was used as a sample for analysis. Quantification of amino acids in the sample for analysis was performed using LC-MS/MS. Infinity 1290 (Agilent) was used for liquid chromatography, and 3200 QTRAP (AB Sciex) was used for mass spectrometry.
A tyrosine administration group and a tyrosine and glycine (each equimolar amount) mixed administration group were set as controls for the glycyltyrosine administration group. An alanyltyrosine administration group was also set for effect comparison.

Solubility in water = format: physicochemical; settings: dose of 0.55 mmol/kg body weight, an amount equivalent to 10 times the solubility of tyrosine
Experimental: Glycyltyrosine and alanyltyrosine are known to have high solubility as compared to tyrosine, and the solubility thereof in water at 20° C. is about 75 times and about 36 times that of tyrosine, respectively (Fust et al., (2001) J. Nutr.). […] In spite of this, an excellent action of improving bioabsorbability of tyrosine was confirmed only in the oral administration/ingestion of glycyltyrosine. Therefore, the action is considered not due to the improvement in solubility, but an effect unique to glycyltyrosine.

[2] = water at 20° C.; Fust et al. (2001) J. Nutr.; cited from earlier work

Compound	blood tyrosine concentration compared with the tyrosine administration group ([1]; 15 minutes after administration, Dunnett p<0.01, FIG. 1)	maximum blood concentration (Cmax) of tyrosine compared to the tyrosine administration group ([1]; FIG. 2)	administered dipeptide detected in the plasma [1]	blood glycine concentration versus the tyrosine and glycine mixed administration group ([1]; at any time after administration, FIG. 1)	area under the increased blood concentration-time curve (iAUC) of tyrosine compared to the tyrosine administration group ([1]; until 60 minutes after administration, FIG. 2)	dissolution of the administration sample in water (Solubility in water)	solubility in water relative to that of tyrosine [2]
NCC(=O)N[C@@H](Cc1ccc(O)cc1)C(=O)O [glycyltyrosine, Glycyl-L-tyrosine dihydrate] (H-Gly-Tyr-OH)	significantly higher	significantly high values	not detected	no significant difference	significantly high values	completely dissolved	about 75 times
C[C@H](N)C(=O)N[C@@H](Cc1ccc(O)cc1)C(=O)O [alanyltyrosine, L-Alanyl-L-tyrosine, reference compound] (H-Ala-Tyr-OH)			not detected			completely dissolved	about 36 times
